According to article PMC5013675, “Nucleotide binding by the widespread high-affinity cyclic di-GMP receptor MshEN domain” (Nature Communications, 2016):

What was measured:
Assay type in all cases: binding
VcMshEN_N G11L = tested on: VcMshEN_N G11L
VcMshEN L10A-L54A-L58A = tested on: VcMshEN L10A-L54A-L58A
VcMshEN_N L54A/L58A = tested on: VcMshEN_N L54A/L58A
VcMshEN_N L10A/L54A/L58A = tested on: VcMshEN_N L10A/L54A/L58A
VcMshEN G11L = target: VcMshEN G11L
VcMshEN L10A/L58A = target: VcMshEN L10A/L58A
VcMshEN_N L25A/L29A = tested on: VcMshEN_N L25A/L29A
VcMshEN_N G40I = tested on: VcMshEN_N G40I
VcMshEN_N L25A = tested on: VcMshEN_N L25A
VcMshEN_N L10A = tested on: VcMshEN_N L10A

Nc1nc2c(ncn2[C@@H]2O[C@@H]3CO[P@](=O)(O)O[C@H]4[C@@H](O)[C@H](n5cnc6c(=O)[nH]c(N)nc65)O[C@@H]4CO[P@](=O)(O)O[C@H]3[C@H]2O)c(=O)[nH]1 [c-di-GMP, Cyclic dimeric GMP]
Melting temperature Tm, + c-di-GMP (VcMshEN_N G11L): 52 ºC | c-di-GMP binding in vitro (VcMshEN L10A-L54A-L58A): abrogates the ability of VcMshEN to bind c-di-GMP | Melting temperature Tm, + c-di-GMP (VcMshEN_N L54A/L58A): 54 ºC | Melting temperature Tm, + c-di-GMP (VcMshEN_N L10A/L54A/L58A): 53 ºC | Dissociation constant (KD) (VcMshEN G11L): abrogated c-di-GMP binding | Dissociation constant (KD) (VcMshEN L10A/L58A): cannot bind c-di-GMP | Fold reduction of binding affinity (VcMshEN L10A/L58A): > 100 | Melting temperature Tm, + c-di-GMP (VcMshEN_N L25A/L29A): 59 ºC | Tm Difference (VcMshEN_N L25A/L29A): 9 ºC | Melting temperature Tm, + c-di-GMP (VcMshEN_N G40I): 56 ºC | Melting temperature Tm, + c-di-GMP (VcMshEN_N L25A): 60 ºC | Melting temperature Tm, + c-di-GMP (VcMshEN_N L10A): 56 ºC
